Experimental data reported in publication PMC5618406, “New Marine Antifouling Compounds from the Red Alga Laurencia sp” (Marine Drugs, 2017).
Read-outs that look alike come from different tables or passages of the source.

Tests used:
[1] = Antifouling assay against barnacle larvae; type: in vivo; conditions: Amphibalanus amphitrite (barnacle), in vivo, barnacle larvae
Experimental: (§1) An antifouling assay against larvae of the barnacle Amphibalanus amphitrite was conducted according to the previous literature. The antifouling assay against diatoms Nitzschia sp. and Cylindrotheca closterium was conducted as follows. The diatoms were maintained in test tubes under 16 h light and 8 h dark cycle conditions at 25 °C in modified Jorgensen’s medium. Pure compounds were applied to a sample zone (16 mm in diameter) of cellulose TLC aluminum sheet (58 × 58 mm), and then each treated sheet was placed in Petri dish (15 × 90 mm in diameter). After that, 25-mL aliquots of modified Jorgensen’s medium were introduced into Petri dishes with treated sheets, and inoculated with 1 mL of cultivated diatom suspension in equivalent cell densities. Petri dishes were sealed with Parafilm to ensure a closed system, and were incubated under the same conditions. Cell growth was estimated daily, and the adhesive condition was evaluated and compared to those of the control after seven days of incubation.

[2] = test system: larvae of the barnacle Amphibalanus amphitrite; test: Antifouling assay against barnacle larvae; type: in vivo; conditions: for toxicity to larvae: at 10 µg/mL
Experimental: as §1

Cylindrotheca closterium = test: Antifouling (anti-diatom) assay on treated cellulose TLC sheet; type: cell-based; conditions: at 5–10 µg/cm^2, seven days of incubation
Experimental: as §1

Nitzschia sp. = test: as above; type: cell-based; conditions: at 5–10 µg/cm^2, seven days of incubation
Experimental: as §1

[3] = values in text, read-out: toxicity LC50
[4] = Amphibalanus amphitrite, barnacle larvae, Table 4, read-out: EC50
[5] = Amphibalanus amphitrite, barnacle larvae, values in text, read-out: antifouling activity EC50
[6] = barnacle larvae, values in text
[7] = Table 4, dash entries, read-out: LC50
[8] = Amphibalanus amphitrite, barnacle larvae, Table 4, dash entries, read-out: EC50

Compound | LC50 [1, 3] [µg/mL] | EC50 [2, 4] [nM] | EC50 [2, 5] [µg/mL] | LC50 [1, 7] [µg/mL] | other results
CC[C@@H]1[C@@H]2[C@H]3OC(C=C=CBr)C[C@H]3O[C@]2(O)[C@@H](Br)C[C@H]1Br (relative stereo) [Compound 3, hachijojimallene A] | 9.8 | 310 | 0.15 to 0.23 |  | LC50 ([1]; Table 4, read-out: LC50): 20000 nM; antifouling activity EC50 [2, 6]: 0.15 µg/mL
CC[C@@H]1[C@@H]2[C@H]3OC(C=C=CBr)C[C@H]3O[C@@]23O[C@@H]1C[C@@H]3Br (relative stereo) [Compound 4, hachijojimallene B] | 6.8 | 760 | 0.31 |  | LC50 ([1]; Table 4, read-out: LC50): 17000 nM
CC(C)=CCCC(C)C1(O)CCC2(C)C(Br)CCC(C)(O)C2C1 (centres unmarked) [Compound 1, omaezol] | 3.7 | 590 | 0.15 to 0.23 |  | LC50 ([1]; Table 4, read-out: LC50): 9600 nM; antifouling activity EC50 [2, 6]: 0.23 µg/mL
CC(C)(Cl)C(Br)CCC(C)(O)C1CCC(C)(C(O)CCC2OC3(C(C)(O)CCC(Br)C(C)(C)Cl)CCC2(C)O3)O1 (centres unmarked) [Compound 2, intricatriol] |  |  | > 10 | > 10 | EC50 [2, 8]: > 10 µg/mL
Cc1ccc2c(c1)O[C@@]1(C=O)[C@@H](C)CC[C@@]21C [Compound 5, debromoaplysinal] |  | 4300 | 1 | > 10 | toxicity to larvae [2]: did not kill any larvae
CC1=C(/C=C/C(C)=C/CC/C(C)=C/CO)C(C)(C)CC(O)C1 (centres unmarked) [Compound 6, 11,12-dihydro-3-hydroxyretinol] |  |  |  |  | anti-diatom activity (Cylindrotheca closterium): showed inhibition; anti-diatom activity (Nitzschia sp.): showed inhibition
Cc1cc(O)c([C@]2(C)CC[C@@H]3C[C@@]32C)cc1Br [Compound 8, laurinterol] | 5.8 | 2200 | 0.65 |  | LC50 ([1]; Table 4, read-out: LC50): 20000 nM
C=C1[C@@H](C)CC[C@@]1(C)c1cc(Br)c(C)cc1O [Compound 9, isolaurinterol] | > 10 | 1200 | 0.34 | > 10 | 
Cc1ccc([C@]2(C)CC[C@@H]3C[C@@]32C)c(O)c1 [Compound 10, debromolaurinterol] | > 10 | 2300 | 0.5 | > 10 | 
Cc1ccc([C@]2(C)CC[C@@H](Br)C2(C)C)cc1 [Compound 11, α-bromocuparene] |  |  |  | > 10 | EC50 [2, 8]: > 10 µg/mL; antifouling activity ([2]; barnacle larvae, result in words): inactive
CC1(C)C(Br)=C[C@H]2O[C@@]2(C)[C@]12C[C@H](Br)[C@@](C)(Cl)C[C@@H]2O [Compound 12, prepacifenol] | > 10 | 1500 | 0.63 | > 10 | anti-diatom activity (Cylindrotheca closterium): showed inhibition; anti-diatom activity (Nitzschia sp.): showed inhibition
CC1(C)[C@]23C[C@H](Br)[C@@](C)(Cl)C[C@@H]2O[C@@]1(Br)C=C[C@@]3(C)O [Compound 13, pacifenol] | > 10 | 5500 | 2.36 | > 10 | 
CC1=C[C@H](O)[C@@H](Br)C(C)(C)[C@]12CC[C@](C)(Cl)[C@@H](Br)C2 [Compound 14, 2,10-dibromo-3-chloro-9-hydroxy-α-chamigrene] | > 10 | 6100 | 2.51 | > 10 | anti-diatom activity (Cylindrotheca closterium): showed inhibition; anti-diatom activity (Nitzschia sp.): showed inhibition
O=S(=O)([O-])[O-].[Cu+2] [CuSO4, reference compound] |  |  |  |  | LC50 ([2]; barnacle larvae, Table 4): 1400 nM; EC50 ([2]; barnacle larvae, Table 4, read-out: EC50): 720 nM; antifouling activity EC50 [2, 6]: 0.18 µg/mL
Cn1c(Br)c(Br)c2ccc(Br)cc21 [N-methyl-2,3,6-tribromoindole] |  |  | 4.3 |  | toxicity to larvae [2]: not toxic
